What was measured:
tyrosinase = assay: Whitening test: inhibition of tyrosinase; settings: 1 mg/mL sample solutions (combinations mixed 1:1 or 1:1:1), tyrosine substrate, 30° C., absorbance 475 nm
IL-8 = assay: Anti-inflammatory test: IL-8 in UVB-stimulated keratinocytes; assay type: cell-based, human; settings: UV-B 50 mJ/cm^2 irradiated keratinocytes, 24 h, supernatant, maximum non-cytotoxic dose (combinations: half dose each)
Protocol: (§1) Cell culture: HaCat, a normal human epidermal keratinocyte (NHEK) cell line, was purchased from Wuhan Saios Biotechnology Co., Ltd. The cells were stored in a humid environment (95% air and 5% carbon dioxide at 37° C.) and cultured in DMEM supplemented with 10% heat inactivated FBS, 2 mM glutamine and 1% penicillin/streptomycin. The culture was harvested and the cell morphology was examined by phase contrast microscope. Cell suspension was counted with a hemocytometer (Marienfeld, Germany) to monitor the number of cells.
(§2) UVB stimulation: Keratinocytes were inoculated into a 12-well plate (50,000 cells/mL) and cultured to a confluency of ˜80%. The cells were washed once with phosphate buffered saline (PBS) at room temperature, 0.5 mL PBS was added to the cells, and then irradiated with ultraviolet rays. The cells were exposed to 50 mJ/cm^2 UV-B (Philips, 311 nm) for 2 minutes. […]
(§3) Detection of inflammatory factors: the standard curve of each cytokine (TNF-α, IL-8, IL-6) were generated by using the reference cytokine samples provided by the kit. […] The absorbance (OD value) was measured by microplate reader at the wavelength of 450 nm, and the concentration was calculated according to the standard curve.

IL-6 = assay: Anti-inflammatory test: IL-6 in UVB-stimulated keratinocytes; assay type: cell-based, human; settings: UV-B 50 mJ/cm^2 irradiated keratinocytes, 24 h, supernatant, maximum non-cytotoxic dose (combinations: half dose each)
Protocol: as §1, §2, §3

TNF-α = assay: Anti-inflammatory test: TNF-α in UVB-stimulated keratinocytes; assay type: cell-based, human; settings: UV-B 50 mJ/cm^2 irradiated keratinocytes, 24 h, supernatant, maximum non-cytotoxic dose (combinations: half dose each)
Protocol: as §1, §2, §3

| Compound | inhibition rate on tyrosinase (tyrosinase) | content of IL-8 (IL-8) | content of IL-6 (IL-6) | content of TNF-α (TNF-α) |
| --- | --- | --- | --- | --- |
| C[N+](C)(C)[C@@H](Cc1c[nH]c(=S)[nH]1)C(=O)[O-] [EGT, ergothioneine] | 68% | 23 pg/mL | 28 pg/mL | about 95 pg/ml |
| COc1cc(CCC(=O)CC(=O)CCc2ccc(O)c(OC)c2)ccc1O [THC, tetrahydrocurcumin] |  | 25 pg/mL | 27 pg/mL | about 90 pg/ml |

Source: US20260069523A1, “SKIN CARE COMPOSITION AND USE THEREOF” (NANJING NUTRABUILDING BIO-TECH CO., LTD., priority 2023, published 2026)
